Consider one molecule from publication PMC6934184, “Selective DNA-PKcs inhibition extends the therapeutic index of localized radiotherapy and chemotherapy” (The Journal of Clinical Investigation, 2019).

The target of the experiment is T1, DCAMKL2 (DCK2) (Homo sapiens, UniProt Q8N568).
T1 construct: purchased Thermo Fisher Scientific (Life Technologies) SelectScreen
As to the kind of experiment: SelectScreen Z'LYTE. It counts as biochemical. The essentials: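 Percent values come from Thermo SelectScreen profiling of NU5455, combining activity and binding assays. CSF1R was run in Z'LYTE format at Km app ATP, and CAMK1 in Adapta format with ATP listed at 10.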

T1 sequence (Q8N568 whole entry): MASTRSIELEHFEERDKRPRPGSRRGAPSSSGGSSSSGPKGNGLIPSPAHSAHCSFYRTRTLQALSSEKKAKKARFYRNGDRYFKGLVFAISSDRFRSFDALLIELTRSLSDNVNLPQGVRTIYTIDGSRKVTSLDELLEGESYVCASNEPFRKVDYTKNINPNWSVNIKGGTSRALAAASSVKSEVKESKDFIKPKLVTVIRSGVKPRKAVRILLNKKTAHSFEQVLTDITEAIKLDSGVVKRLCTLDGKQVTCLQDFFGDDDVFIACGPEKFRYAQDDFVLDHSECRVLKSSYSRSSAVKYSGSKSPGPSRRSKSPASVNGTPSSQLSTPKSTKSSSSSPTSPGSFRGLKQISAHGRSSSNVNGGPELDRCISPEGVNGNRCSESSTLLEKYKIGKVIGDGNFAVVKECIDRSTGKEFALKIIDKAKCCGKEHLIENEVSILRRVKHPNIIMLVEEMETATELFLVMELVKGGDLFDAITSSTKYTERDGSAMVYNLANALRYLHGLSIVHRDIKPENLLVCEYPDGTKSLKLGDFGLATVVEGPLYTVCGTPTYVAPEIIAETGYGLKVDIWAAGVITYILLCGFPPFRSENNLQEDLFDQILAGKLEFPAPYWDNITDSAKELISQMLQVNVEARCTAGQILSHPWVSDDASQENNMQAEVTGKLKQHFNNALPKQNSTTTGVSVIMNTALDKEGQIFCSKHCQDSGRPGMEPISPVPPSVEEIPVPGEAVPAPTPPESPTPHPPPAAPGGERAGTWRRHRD

Usually inhibition stands for the change of the read-out against control, counted positive when it falls. A higher inhibition goes with a strong effect. Molecule `CN(C(=O)CN1CCOCC1)c1ccc2sc3c(-c4cccc5c(=O)cc(N6CC7CCC(C6)O7)oc45)cccc3c2c1` [NU5455] yielded an inhibition at 1 µM of 1.5%.
